Results: patent publication US20080188524A1, “Methods of treating pain” (priority 2006, published 2008)
Where “and” joins values, the source holds several entries; their conditions need not be identical. Equal values may be shown once. Entries after “also recorded” stand apart in the source; their conditions may differ.

Legend:
[1] = test system: TNFα and IL6 expression in LPS induced THP-1 macrophages; assay: In vitro THP-1 assay, LPS-induced cytokine expression (ELISA); format: cell-based, human
Protocol: The human THP-1 cell line can be utilized as an in vitro model of cytokine expression as mediated by Lipopolysaccharide (LPS) or Tumor Necrosis Factors [TNFα]. Monocytic THP-1 cells (ATCC; TIB-202) can be differentiated into macrophage-like cells expressing pro-inflammatory cytokines like TNFα, IL6 and IL1β upon induction with LPS or by TNFα (autocrine induction) itself. THP-1 cells are grown in modified RPMI-1640medium (ATCC, Cat. No. 30-2001) supplemented with 10% FCS and 1% Pen/Strep. For cytokine inhibition assays, cells are seeded at a density of 5×10^5 cells/ml into 6-well plates in standard growth medium supplemented with 100 ng/ml PMA (Sigma, P1585) to induce differentiation into macrophage-like cells. After 24 hours, the medium is replaced with standard growth medium (without PMA) and the cells are incubated for another 48 hours to complete differentiation. […] Cells are incubated for 60 min with compounds prior to stimulation with 100 ng/ml LPS (Sigma, L2630) for another 4-48 hours. Supernatants are collected and assayed immediately for cytokine expression, e.g. for TNFα, IL-6 and IL-1b using commercially available sandwich ELISA assays (eBioscience, Cat. No 88-7346, 88-7066, 88-7010) or kept frozen at […] until evaluation. Concentrations of TNFα, IL6 and IL1β within the cell culture supernatants are measured by using commercial ELISA Kits (eBioscience) according to the manufacturer's instructions. CDK-inhibitory compounds according to any one of general Formula I, II or III are administered to differentiated THP-1 cells in triplicates as described above (see section 2.). After 60 min of pre-incubation with test or reference compound (SB203580, a p38 inhibitor and BMS345541, an IKK-inhibitor) alone, cells are stimulated with LPS. After incubation for 4-48 h, supernatants are collected and ELISA based determinations of cytokine supernatant concentrations are performed as described in section 3, supra. […] After 60 min of pre-incubation with test or reference compound (a p38 inhibitor and an IKK-inhibitor, respectively) alone, cells were stimulated with LPS. […]

[2] = test system: SNI mice (mechanical allodynia); assay: Spared nerve injury (SNI) model, von Frey assay; format: in vivo, mice (strain C3HeB/FeJ); conditions: 30 mg/kg i.p., day 21 post SNI
From the text: The spared nerve injury model (SNI model, as developed by Decosterd and Woolf (2000), see FIG. 1) is characterized by the induction of clinically relevant nerve lesions and after surgical intervention, subsequent behavioral experiments (e.g., von Frey Assay). Said model constitutes a common nerve injury model which consists of ligation and section of two branches of the sciatic nerve (namely tibial and common peroneal nerves) leaving the sural nerve intact. The SNI model results in early (less than 24 hours), prolonged and substantial changes in mechanical and cold sensitivity that closely mimic the features of clinical neuropathic pain. […] As outlined above, the spared nerve injury (SNI) model (see FIG. 1) involves a lesion of two of the three terminal branches of the sciatic nerve (tibial and common peroneal nerves) of experimental animals, leaving the sural nerve intact. SNI results in mechanical and thermal allodynia in the non-injured sural nerve skin territory (Decosterd and Woolf, Pain 2000; 87:149-158. (2) Tsujino et al., Mol. Cel. Neurosci. 2000; 15:170-182). Wildtype mice (strain […]/FeJ) (age, sex and weight matched) are anesthetized with Hypnorm (0.315 mg/ml fentanyl citrate +10 mg/ml fluanisone; Janssen)/Hypnovel (5 mg/ml midazolam; Roche Applied Sciences)/water at a ratio of 1:1:2 at 4 μl/g prior to surgical preparation. Subsequently, an incision is made under aseptic precautions in the ipsi-lateral right hind leg of all mice just above the level of the knee, exposing the three terminal branches of the sciatic nerve: the common peroneal, tibial, and sural nerves. The common peroneal and tibial nerves are ligated tightly with 7/0 silk and sectioned distal to the ligation removing 2 mm of distal nerve stump. The sural branch remains untouched during the procedure (denoted herein “SNI ipsi”). […] Reflex nociceptive responses to mechanical stimulation were measured in a von Frey assay 30 min after each injection. […] Mechanical thresholds of SNI mice are quantified using the up-down method based on Chaplan et al. (1994) and Malmberg and Basbaum (1998). […]

[3] = test system: LPS or SEB induced TNF α in human whole blood; assay: tissue or blood; format: cell-based
[4] = test system: carrageenan-treated mice (paw edema); assay: Carrageenan assay in mice, paw edema; format: in vivo; conditions: within the observation period, all treated animals
Protocol: For the carrageenan assay a subcutaneous injection of 25 μl of 1% carrageenan (in saline) into a single hind paw (ipsi-lateral paw) of mice is applied. Subsequent inflammation results in long lasting swelling and hypersensitivity (against mechanical and thermal stimuli) of the paw. The carrageenan assay is a standard laboratory assay used to predict anti-inflammatory activity of test compounds. Paw edema measurements and Hargreaves Assay (withdrawal of paws due to thermal stimulation via a light source) are used for read out. The model of carrageenan induced paw edema is a standard laboratory assay used to predict anti-inflammatory activity and reduction of inflammation-induced pain perception of respective compounds. The following protocol describes one possible way to conduct the experiment. The basic measurement constitutes in the measurement of edema and mechanical as well as thermal hypersensitivity in response to irritants, such as carrageenan. […] Paw edema induced by carrageenan injection are detected by increased paw size measured from dorsal to plantar at the metatarsus region of the injected (ipsi-lateral) paws. Sizes of ipsi- and contra-lateral paws serve as surrogate markers for inflammation and are measured at several time points after carrageenan injection: before injection (-1), 2 […] […]

[5] = LPS-stimulated differentiated THP-1 cells, ELISA

With `CC(C)(C)c1cnc(CSc2cnc(NC(=O)C3CCNCC3)s2)o1` [compound #16 of Table 1, N-[5-[[[5-(1,1-dimethylethyl)-2-oxazolyl]-methyl]thio]-2-thiazolyl]-4-piperidinecarboxamide] the “TNFα signal compared to DMSO (vehicle control)” value ([1]; 3 μM, LPS-induced THP-1 cells) was 50%, the “effect on IL6 protein concentration in the cell supernatant versus vehicle (DMSO)” value [1, 5] was “significant inhibitory effect” and the “effect on TNFα protein concentration in the cell supernatant versus vehicle (DMSO)” value [1, 5] was “significant inhibitory effect”. The “effect on mechanical allodynia of SNI mice (von Frey)” value ([2]; 30 min prior to von Frey measurement, ipsi-lateral paw) was “hypoalgesic effect; also recorded: significant amelioration of allodynia”, the “contra-lateral paws, effect of pharmacological treatment (von Frey)” value ([2]; contra-lateral paw) was “unaffected” and the “von Frey threshold values” ([2]; ipsi-lateral paw, all treated animals) was “significant increase of threshold values”. The “reduction of TNF α levels” value [3] was 89% and 85% and 78%, the IC50 ([3]; Homo sapiens, read-out: IC50 (TNF α reduction), deduced from the data) was less than 500 nM and the “ipsi-lateral paw edema compared to vehicle control group” value [4] was “reduced paw edema”.
